Assay results: patent US9643991B2, “Process for preparing a novel crystalline form of emamectin benzoate and use the same” (ROTAM AGROCHEM INTERNATIONAL CO., LTD, priority 2015, dated 2017)

Key:
[1] = Residue of diluted SG formulations passed through the wet sieve; assay type: physicochemical
Method: The procedure in Example 5 was repeated by using emamectin benzoate crystalline forms A and B mentioned in U.S. Pat. No. 6,486,195.
SG samples prepared in Examples 5 and 6 were diluted with water and their residues were compared by passing through the wet sieve.

[2] = Stability of the crystalline modification during prolonged storage; assay type: physicochemical
[3] = cited from earlier work
[4] = test system: Lepidoptera pole larvae and many other pests; conditions: cited from earlier work

For “4″-deoxy-4″-epi-methylamino avermectin B1a/B1b [Crystalline forms V]”, the “Residue, Dilution factor 100” value ([1]; SG samples of Examples 5 and 6 diluted with water, wet sieve, dilution factor 100) was “No residue”, the “Residue, Dilution factor 1000” value ([1]; SG samples of Examples 5 and 6 diluted with water, wet sieve, dilution factor 1000) was “No residue” and the Stability after dilution ([1]; after dilution, compared to other crystal forms) was “extremely stable after dilution”. The “Conversion to other crystalline modifications” value [2] was “does not convert to other crystalline modifications”.

For “4″-deoxy-4″-epi-methylamino avermectin B1a/B1b [Emamectin benzoate]”, the Solubility in acetone ([3]; acetone) is listed as “soluble”, the Solubility in ethanol ([3]; ethanol) is listed as “soluble” and the Solubility in hexane ([3]; hexane) is listed as “insoluble”. The Solubility in methanol ([3]; methanol) was “soluble”, the Solubility in water ([3]; water) was “slightly soluble” and the “Insecticidal activity higher than other avermectin pesticides” value ([4]; compared with abamectin, doramectin, ivermectin) was 1-3 orders of magnitude. For the same substance, the Effective dose ([4]; very low doses) was 0.084-2 g/ha.
